According to US10499642B2, “Isoxazoline-substituted benzamides and analogues as insecticides” (SYNGENTA PARTICIPATIONS AG, priority 2015, dated 2019):
Where two headings read alike, the source gives them in different places.

Key:
Assay type in all cases: in vivo
[1] = system: Tetranychus urticae; experiment: Tetranychus urticae (two-spotted spider mite) bean leaf disc test; conditions: foliar, 192 h
Method: Tetranychus urticae (Two-Spotted Spider Mite):
Bean leaf discs on agar in 24-well microtiter plates were sprayed with aqueous test solutions prepared from 10′000 ppm DMSO stock solutions. After drying the leaf discs were infested with a mite population of mixed ages. The samples were assessed for mortality on mixed population (mobile stages) 8 days after infestation.

[2] = system: Spodoptera littoralis; experiment: Spodoptera littoralis (Egyptian cotton leaf worm) cotton leaf disc test; conditions: foliar, 72 h, read-out: control (at least one of mortality, anti-feedant effect, and growth inhibition)
Method: Spodoptera littoralis (Egyptian Cotton Leaf Worm)
Cotton leaf discs were placed on agar in 24-well microtiter plates and sprayed with aqueous test solutions prepared from 10′000 ppm DMSO stock solutions. After drying the leaf discs were infested with five L1 larvae. The samples were assessed for mortality, anti-feedant effect, and growth inhibition in comparison to untreated samples 3 days after infestation. Control of Spodoptera littoralis by a test sample is when at least one of mortality, anti-feedant effect, and growth inhibition is higher than the untreated sample.

[3] = system: Plutella xylostella; experiment: Plutella xylostella (diamond back moth) artificial diet test; conditions: 120 h, read-out: effect in at least one of the two categories (mortality or growth inhibition)
Method: Plutella xylostella (Diamond Back Moth):
24-well microtiter plates with artificial diet were treated with aqueous test solutions prepared from 10′000 ppm DMSO stock solutions by pipetting. After drying, the plates were infested with L2 larvae (10 to 15 per well). The samples were assessed for mortality and growth inhibition in comparison to untreated samples 5 days after infestation. The following compounds gave an effect of at least 80% in at least one of the two categories (mortality or growth inhibition) at an application rate of 200 ppm: […]

[4] = system: Myzus persicae; experiment: Myzus persicae (green peach aphid) sunflower leaf disc test; conditions: foliar, 144 h
Method: Myzus persicae (Green Peach Aphid):
Sunflower leaf discs were placed on agar in a 24-well microtiter plate and sprayed with test solutions at an application rate of 200 ppm. After drying, the leaf discs were infested with an aphid population of mixed ages. After an incubation period of 6 days after treatment, samples were checked for mortality. The following compounds gave at least 80% mortality of Myzus persicae: […]

[5] = system: Diabrotica Balteata; experiment: Diabrotica balteata (corn root worm) maize sprout test; conditions: 96 h, read-out: effect in at least one of the two categories (mortality or growth inhibition)
Method: Diabrotica Balteata, (Corn Root Worm)
Maize sprouts, placed on an agar layer in 24-well microtiter plates were treated with aqueous test solutions prepared from 10′000 ppm DMSO stock solutions by spraying. After drying, the plates were infested with L2 larvae (6 to 10 per well). The samples were assessed for mortality and growth inhibition in comparison to untreated samples 4 days after infestation. The following compounds gave an effect of at least 80% in at least one of the two categories (mortality or growth inhibition) at an application rate of 200 ppm: […]

[6] = system: Thrips tabaci; experiment: Thrips tabaci (onion thrips) sunflower leaf disc test; conditions: foliar, 144 h
Method: Thrips tabaci (Onion Thrips):
Sunflower leaf discs were placed on agar in 24-well microtiter plates and sprayed with aqueous test solutions prepared from 10′000 ppm DMSO stock solutions. After drying the leaf discs were infested with a thrips population of mixed ages. The samples were assessed for mortality 6 days after infestation.

CCSC1=NOC(NC(=O)c2ccc(C3=NO[C@@](c4cc(Cl)cc(C(F)(F)F)c4)(C(F)(F)F)C3)cc2C)C1 (stereo partly drawn) [Compound A051]
≥ 80%: mortality at 200 ppm [1] | percent control (mortality, anti-feedant effect or growth inhibition) at 200 ppm [2] | percent effect (mortality or growth inhibition) at 200 ppm [3] | mortality at 200 ppm [4] | percent effect (mortality or growth inhibition) at 200 ppm [5] | mortality at 200 ppm [6]

C=C(C)COC1=NOC(NC(=O)c2ccc(C3=NO[C@@](c4cc(Cl)c(F)c(Cl)c4)(C(F)(F)F)C3)cc2C)C1 (stereo partly drawn) [Compound A080]
≥ 80%: mortality at 200 ppm [1] | percent control (mortality, anti-feedant effect or growth inhibition) at 200 ppm [2] | percent effect (mortality or growth inhibition) at 200 ppm [3] | mortality at 200 ppm [4] | percent effect (mortality or growth inhibition) at 200 ppm [5] | mortality at 200 ppm [6]

Cc1cc(C2=NO[C@@](c3cc(Cl)c(Cl)c(Cl)c3)(C(F)(F)F)C2)ccc1C(=O)NC1CC(OCC(F)(F)F)=NO1 (stereo partly drawn) [Compound A129, 2-methyl-4-[(5S)-5-(3,4,5-trichlorophenyl)-5-(trifluoromethyl)-4H-isoxazol-3-yl]-N-[3-(2,2,2-trifluoroethoxy)-4,5-dihydroisoxazol-5-yl]benzamide]
≥ 80%: mortality at 200 ppm [1] | percent control (mortality, anti-feedant effect or growth inhibition) at 200 ppm [2] | percent effect (mortality or growth inhibition) at 200 ppm [3] | mortality at 200 ppm [4] | percent effect (mortality or growth inhibition) at 200 ppm [5] | mortality at 200 ppm [6]

CCOC1=NOC(NC(=O)c2ccc(C3=NO[C@@](c4cc(Cl)c(F)c(Cl)c4)(C(F)(F)F)C3)cc2C)C1 (stereo partly drawn) [Compound A046]
≥ 80%: mortality at 200 ppm [1] | percent control (mortality, anti-feedant effect or growth inhibition) at 200 ppm [2] | percent effect (mortality or growth inhibition) at 200 ppm [3] | mortality at 200 ppm [4] | percent effect (mortality or growth inhibition) at 200 ppm [5] | mortality at 200 ppm [6]

C#CCOC1=NOC(NC(=O)c2ccc(C3=NO[C@@](c4cc(Cl)c(F)c(Cl)c4)(C(F)(F)F)C3)cc2C)C1 (stereo partly drawn) [Compound A074]
≥ 80%: mortality at 200 ppm [1] | percent control (mortality, anti-feedant effect or growth inhibition) at 200 ppm [2] | percent effect (mortality or growth inhibition) at 200 ppm [3] | mortality at 200 ppm [4] | percent effect (mortality or growth inhibition) at 200 ppm [5] | mortality at 200 ppm [6]

CC1=NOC(N(C=O)C(=O)c2ccc(C3=NO[C@@](c4cc(Cl)c(F)c(Cl)c4)(C(F)(F)F)C3)cc2Br)C1 (stereo partly drawn) [Compound A034, 2-bromo-4-[(5S)-5-(3,5-dichloro-4-fluoro-phenyl)-5-(trifluoromethyl)-4H-isoxazol-3-yl]-N-formyl-N-(3-methyl-4,5-dihydroisoxazol-5-yl)benzamide]
≥ 80%: mortality at 200 ppm [1] | percent control (mortality, anti-feedant effect or growth inhibition) at 200 ppm [2] | percent effect (mortality or growth inhibition) at 200 ppm [3] | mortality at 200 ppm [4] | percent effect (mortality or growth inhibition) at 200 ppm [5] | mortality at 200 ppm [6]

CC1=NOC(N(C=O)C(=O)c2ccc(C3=NO[C@@](c4cc(Cl)cc(Cl)c4)(C(F)(F)F)C3)cc2C)C1 (stereo partly drawn) [Compound A140]
≥ 80%: mortality at 200 ppm [1] | percent control (mortality, anti-feedant effect or growth inhibition) at 200 ppm [2] | percent effect (mortality or growth inhibition) at 200 ppm [3] | mortality at 200 ppm [4] | percent effect (mortality or growth inhibition) at 200 ppm [5] | mortality at 200 ppm [6]

Cc1cc(C2=NO[C@@](c3cc(Cl)cc(Cl)c3)(C(F)(F)F)C2)ccc1C(=O)NC1CC(OCC(F)F)=NO1 (stereo partly drawn) [Compound A128]
≥ 80%: mortality at 200 ppm [1] | percent control (mortality, anti-feedant effect or growth inhibition) at 200 ppm [2] | percent effect (mortality or growth inhibition) at 200 ppm [3] | mortality at 200 ppm [4] | percent effect (mortality or growth inhibition) at 200 ppm [5] | mortality at 200 ppm [6]

Cc1cc(C2=NO[C@@](c3cc(Cl)c(Cl)c(Cl)c3)(C(F)(F)F)C2)ccc1C(=O)NC1CC(OCC(=O)N(C)C)=NO1 (stereo partly drawn) [Compound A114, N-[3-[2-(dimethylamino)-2-oxo-ethoxy]-4,5-dihydroisoxazol-5-yl]-2-methyl-4-[(5S)-5-(3,4,5-trichlorophenyl)-5-(trifluoromethyl)-4H-isoxazol-3-yl]benzamide]
≥ 80%: mortality at 200 ppm [1] | percent control (mortality, anti-feedant effect or growth inhibition) at 200 ppm [2] | percent effect (mortality or growth inhibition) at 200 ppm [3] | mortality at 200 ppm [4] | mortality at 200 ppm [6]

CSC1=NOC(NC(=O)c2ccc(C3=NO[C@@](c4cc(Cl)c(SC)c(Cl)c4)(C(F)(F)F)C3)cc2C)C1 (stereo partly drawn) [Compound A020, 4-[(5S)-5-(3,5-dichloro-4-methylsulfanyl-phenyl)-5-(trifluoromethyl)-4H-isoxazol-3-yl]-2-methyl-N-(3-methylsulfanyl-4,5-dihydroisoxazol-5-yl)benzamide]
≥ 80%: mortality at 200 ppm [1] | percent control (mortality, anti-feedant effect or growth inhibition) at 200 ppm [2] | percent effect (mortality or growth inhibition) at 200 ppm [3] | percent effect (mortality or growth inhibition) at 200 ppm [5] | mortality at 200 ppm [6]

Cc1cc(C2=NO[C@@](c3cc(Cl)c(Cl)c(Cl)c3)(C(F)(F)F)C2)ccc1C(=O)NC1CC(OS(C)(=O)=O)=NO1 (stereo partly drawn) [Compound A135, [5-[[2-methyl-4-[(5S)-5-(3,4,5-trichlorophenyl)-5-(trifluoromethyl)-4H-isoxazol-3-yl]benzoyl]amino]-4,5-dihydroisoxazol-3-yl] methanesulfonate]
≥ 80%: mortality at 200 ppm [1] | percent control (mortality, anti-feedant effect or growth inhibition) at 200 ppm [2] | percent effect (mortality or growth inhibition) at 200 ppm [3] | percent effect (mortality or growth inhibition) at 200 ppm [5] | mortality at 200 ppm [6]

CCOC1=NOC(N(C(=O)c2ccc(C3=NO[C@@](c4cc(Cl)c(F)c(Cl)c4)(C(F)(F)F)C3)cc2C)[C@H](C)c2ccc(OC)cc2)C1 (stereo partly drawn) [Compound A131]
≥ 80%: mortality at 200 ppm ([1]; application rate 200 ppm, bean leaf discs, mixed population (mobile stages), 8 days after infestation, read-out: mortality) | percent control (mortality, anti-feedant effect or growth inhibition) at 200 ppm ([2]; application rate 200 ppm, cotton leaf discs, L1 larvae, 3 days after infestation) | percent effect (mortality or growth inhibition) at 200 ppm ([3]; application rate 200 ppm, artificial diet, L2 larvae, 5 days after infestation) | percent effect (mortality or growth inhibition) at 200 ppm ([5]; application rate 200 ppm, maize sprouts, L2 larvae, 4 days after infestation) | mortality at 200 ppm ([6]; application rate 200 ppm, sunflower leaf discs, population of mixed ages, 6 days after infestation, read-out: mortality)

C/C(N)=N/OC1=NOC(NC(=O)c2ccc(C3=NO[C@@](c4cc(Cl)c(F)c(Cl)c4)(C(F)(F)F)C3)cc2C)C1 (stereo partly drawn) [Compound A143, N-[3-[(Z)-1-aminoethylideneamino]oxy-4,5-dihydroisoxazol-5-yl]-4-[(5S)-5-(3,5-dichloro-4-fluoro-phenyl)-5-(trifluoromethyl)-4H-isoxazol-3-yl]-2-methyl-benzamide]
≥ 80%: mortality at 200 ppm [1] | percent control (mortality, anti-feedant effect or growth inhibition) at 200 ppm [2] | percent effect (mortality or growth inhibition) at 200 ppm [3] | percent effect (mortality or growth inhibition) at 200 ppm [5] | mortality at 200 ppm [6]

Cc1cc(C2=NO[C@@](c3cc(Cl)c(F)c(Cl)c3)(C(F)(F)F)C2)ccc1C(=O)NC1CC(/C=N/O)=NO1 (stereo partly drawn) [Compound A118]
≥ 80%: mortality at 200 ppm [1] | percent control (mortality, anti-feedant effect or growth inhibition) at 200 ppm [2] | percent effect (mortality or growth inhibition) at 200 ppm [3] | percent effect (mortality or growth inhibition) at 200 ppm [5] | mortality at 200 ppm [6]
